Results published in patent US12344610B2, “APOL1 inhibitors and methods of use” (Maze Therapeutics, Inc., priority 2022, dated 2025).

Assays:
Type in all cases: cell-based
[1] = system: HEK293 cells overexpressing APOL1 G2; test: APOL1 G2 HEK293 cell rescue assay (reversal of cell death caused by overexpression of APOL1); details: Homo sapiens, HEK293, HEK293 overexpressing APOL1 G2; geometric mean of at least 2 assay runs; † = single assay run
How it was run: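 Each compound tested in duplicate wells on one plate per run, with values usually the geometric mean across at least two runs on different days, occasionally from one run only. Read-out: concentration giving half-maximal rescue of APOL1 G2 overexpression-induced death of HEK293 cells.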

APOL1 G2 = target: T1, APOL1 G2 (Homo sapiens, UniProt O14791, DEL388-389); test: APOL1-mediated calcium transport (calcium influx) assay, HEK T-REx/GCaMP6f/APOL1 G2 K6.3 cells, FLIPR TETRA; details: prevention of calcium influx; geometric mean of at least 2 assay runs; † = average of a technical replicate from a single assay run
T1 construct: expressed in transfected cells; host or cells: HEK293 T-REx clonal line stably expressing GCaMP6f (HEK T-REx/GCaMP6f/APOL1 G2 K6.3), doxycycline induced
T1 sequence (O14791 with tags, fused parts or gaps DEL388-389): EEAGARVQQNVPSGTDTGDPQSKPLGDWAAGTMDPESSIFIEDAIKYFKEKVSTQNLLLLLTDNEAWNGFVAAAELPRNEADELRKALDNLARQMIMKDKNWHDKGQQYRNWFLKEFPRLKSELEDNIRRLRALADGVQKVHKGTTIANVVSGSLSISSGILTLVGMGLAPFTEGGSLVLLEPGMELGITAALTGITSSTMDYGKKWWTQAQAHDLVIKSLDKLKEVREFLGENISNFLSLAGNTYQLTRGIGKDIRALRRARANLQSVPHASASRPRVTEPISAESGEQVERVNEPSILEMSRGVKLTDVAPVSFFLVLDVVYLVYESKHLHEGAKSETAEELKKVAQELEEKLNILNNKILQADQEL
How it was run: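 A HEK293 T-REx clone stably expressing GCaMP6f had APOL1 G2 induced with doxycycline (20 ng/mL solution added) for 6 h. Cells were then washed into Ca2+-free Tyrode's buffer (pH 7.4) and preincubated with compounds (duplicate 8-point) for 10 min at room temperature. Ca2+ injection to 5 mM final produced FLIPR GCaMP fluorescence, giving AC50 for influx inhibition (geometric mean, ≥2 runs).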

[2] = system: HEK293 clonal cell line overexpressing APOL1 G1; test: APOL1 G1 HEK293 cell rescue assay (Example B3); details: Homo sapiens, HEK293, HEK293 clonal line overexpressing APOL1 G1; geometric mean of at least 2 runs; † = single run; ¥ = concentration at 50% rescue estimated (no sigmoidal curve)
How it was run: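 Rescue of cell death caused by APOL1 G1 overexpression was measured in a clonal HEK293 line. Compounds were tested in duplicate on one plate, and EC50s were geometric means across at least two runs on different days. Some values are estimated 50%-rescue concentrations where curve fitting failed.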

Structure (SMILES) | EC50 [1] [nM] | AC50 (APOL1 G2) [nM] | EC50 [2] [nM]
CC(=O)N1CCCc2cc(OCCN3CCC4(CC3)C(=O)Nc3ccc(Cl)cc34)cnc21 [Compound 80, 1′-{2-[(8-acetyl-5,6,7,8-tetrahydro-1,8-naphthyridin-3-yl)oxy]ethyl}-5-chloro-1,2-dihydrospiro[indole-3,4′-piperidin]-2-one] | 65.7 | 375 | 178
CC(=O)N1CCCc2cc(OCCN3CCC4(CC3)C(=O)Nc3ccc(C#N)cc34)cnc21 [Compound 81, 1′-{2-[(8-acetyl-5,6,7,8-tetrahydro-1,8-naphthyridin-3-yl)oxy]ethyl}-2-oxo-1,2-dihydrospiro[indole-3,4′-piperidine]-5-carbonitrile] | 280 | 549 | 948
CN1C(=O)C(C)(C)c2cc(OCCN3CCC4(CC3)C(=O)Nc3ccc(C#N)cc34)ccc21 [Compound 83, 2-oxo-1′-{2-[(1,3,3-trimethyl-2-oxo-2,3-dihydro-1H-indol-5-yl)oxy]ethyl}-1,2-dihydrospiro[indole-3,4′-piperidine]-5-carbonitrile] | 247 | 718 | 788
O=C1NCC2c3ccc(OCCN4CCC5(CC4)C(=O)Nc4ccc(Cl)cc45)cc3CCN12 (stereo not drawn) [Compound 115, 5-chloro-1′-[2-({3-oxo-1H,2H,3H,5H,6H,10bH-imidazo[4,3-a]isoquinolin-8-yl}oxy)ethyl]-1,2-dihydrospiro[indole-3,4′-piperidin]-2-one] | 94.9 | 472 | 199
N#Cc1ccc2c(c1)C1(CCN(CCOc3ccc4c(c3)CCN3C(=O)NCC43)CC1)C(=O)N2 (stereo not drawn) [Compound 118, 2-oxo-1′-[2-({3-oxo-1H,2H,3H,5H,6H,10bH-imidazo[4,3-a]isoquinolin-8-yl}oxy)ethyl]-1,2-dihydrospiro[indole-3,4′-piperidine]-5-carbonitrile] | 431 | 1040 | ~2100
O=C1CCC2c3ccc(OCCN4CCC5(CC4)C(=O)Nc4ccc(Cl)cc45)cc3CCN12 (stereo not drawn) [Compound 121, 5-chloro-1′-[2-({3-oxo-1H,2H,3H,5H,6H,10bH-pyrrolo[2,1-a]isoquinolin-8-yl}oxy)ethyl]-1,2-dihydrospiro[indole-3,4′-piperidin]-2-one] | 81.2 | 508 | 249
N#Cc1ccc2c(c1)C1(CCN(CCOc3ccc4c(c3)CCN3C(=O)CCC43)CC1)C(=O)N2 (stereo not drawn) [Compound 124, 2-oxo-1′-[2-({3-oxo-1H,2H,3H,5H,6H,10bH-pyrrolo[2,1-a]isoquinolin-8-yl}oxy)ethyl]-1,2-dihydrospiro[indole-3,4′-piperidine]-5-carbonitrile] | 297 | 727 | 920
Cc1cc(OCCN2CCC3(CC2)C(=O)Nc2ccc(C#N)cc23)cc(C)c1S(C)(=O)=O [Compound 130, 1′-[2-(4-methanesulfonyl-3,5-dimethylphenoxy)ethyl]-2-oxo-1,2-dihydrospiro[indole-3,4′-piperidine]-5-carbonitrile] | 92.3 | 525 | 253
CC(c1ccc(OCCN2CCC3(CC2)C(=O)Nc2ccc(C#N)cc23)cc1)S(C)(=O)=O (stereo not drawn) [Compound 133, 1′-{2-[4-(1-methanesulfonylethyl)phenoxy]ethyl}-2-oxo-1,2-dihydrospiro[indole-3,4′-piperidine]-5-carbonitrile] | 203 | 671 | 885
CC(c1c(F)cc(OCCN2CCC3(CC2)C(=O)Nc2ccc(Cl)cc23)cc1F)S(C)(=O)=O (stereo not drawn) [Compound 141, 5-chloro-1′-{2-[3,5-difluoro-4-(1-methanesulfonylethyl)phenoxy]ethyl}-1,2-dihydrospiro[indole-3,4′-piperidin]-2-one] | 48 | 954 | 204
CS(=O)(=O)c1ccc(OCCN2CCC3(CC2)C(=O)N(CCO)c2ccc(C#N)cc23)cc1C(F)(F)F [Compound 159, 1-(2-hydroxyethyl)-1′-{2-[4-methanesulfonyl-3-(trifluoromethyl)phenoxy]ethyl}-2-oxo-1,2-dihydrospiro[indole-3,4′-piperidine]-5-carbonitrile] | 168 | 1010 | 588
N#Cc1ccc2c(c1)C1(CCN(CCOc3ccc4c(c3)CNC4=O)CC1)C(=O)N2 [Compound 170, 2-oxo-1′-{2-[(1-oxo-2,3-dihydro-1H-isoindol-5-yl)oxy]ethyl}-1,2-dihydrospiro[indole-3,4′-piperidine]-5-carbonitrile] | 803 | 1310 | ~2300
O=C1NCc2cc(OCCN3CCC4(CC3)C(=O)Nc3ccc(Cl)cc34)ccc21 [Compound 171, 5-chloro-1′-{2-[(1-oxo-2,3-dihydro-1H-isoindol-5-yl)oxy]ethyl}-1,2-dihydrospiro[indole-3,4′-piperidin]-2-one] | 100 | 598 | 228
CC1(Oc2ncc(OCCN3CCC4(CC3)C(=O)Nc3ccc(C#N)cc34)cn2)COC1 [Compound 173, 1′-[2-({2-[(3-methyloxetan-3-yl)oxy]pyrimidin-5-yl}oxy)ethyl]-2-oxo-1,2-dihydrospiro[indole-3,4′-piperidine]-5-carbonitrile] | 289 | 908 | 1160
O=C1Nc2ccc(Cl)cc2C12CCN(CCOc1ccc(C3CCCS3(=O)=O)cc1)CC2 (stereo not drawn) [Compound 175, 2-[4-(2-{5-chloro-2-oxo-1,2-dihydrospiro[indole-3,4′-piperidin]-1′-yl}ethoxy)phenyl]-1λ^6-thiolane-1,1-dione] | 63.1 | 381 | 153
N#Cc1ccc2c(c1)C1(CCN(CCOc3ccc(C4CCCS4(=O)=O)cc3)CC1)C(=O)N2 (stereo not drawn) [Compound 178, 1′-{2-[4-(1,1-dioxo-1λ^6-thiolan-2-yl)phenoxy]ethyl}-2-oxo-1,2-dihydrospiro[indole-3,4′-piperidine]-5-carbonitrile] | 256 | 550 | 1190
O=C1OC2(COC2)c2ccc(OCCN3CCC4(CC3)C(=O)Nc3ccc(Cl)cc34)cc21 [Compound 179, 5-chloro-1′-(2-{3-oxo-3H-spiro[2-benzofuran-1,3′-oxetan]-5-yloxy}ethyl)-1,2-dihydrospiro[indole-3,4′-piperidin]-2-one] | 164 | 655 | 484
CS(=O)(=O)C1(c2ccc(OCCN3CCC4(CC3)C(=O)Nc3ccc(C#N)cc34)cc2)CC2(COC2)C1 [Compound 183, 1′-[2-(4-{6-methanesulfonyl-2-oxaspiro[3.3]heptan-6-yl}phenoxy)ethyl]-2-oxo-1,2-dihydrospiro[indole-3,4′-piperidine]-5-carbonitrile] | 702 | 1520 | ~5800
CS(=O)(=O)Nc1ccc(OCCN2CCC3(CC2)C(=O)N(CCO)c2ccc(Cl)cc23)cc1C(F)(F)F [Compound 186, N-(4-{2-[5-chloro-1-(2-hydroxyethyl)-2-oxo-1,2-dihydrospiro[indole-3,4′-piperidin]-1′-yl]ethoxy}-2-(trifluoromethyl)phenyl)methanesulfonamide] | 35.9 | 524 | 98.8
